MIC, LD50 and ED50 data for eleven molecules are collected here from US5001121A, “Cephalosporin compounds and pharmaceutical compositions thereof” (Mochida Pharmaceutical Co., Ltd., priority 1985, dated 1991).

One data set relates to Escherichia coli 67. Kind of data set: Antibacterial activity in vitro, agar plate dilution method (MIC). The class given is cell-based. As to conditions: Mueller Hinton agar, 10^6 cells/ml, 37° C., 20 hours. As for the experimental part: (§1) Antibacterial activity in vitro was determined in accordance with the agar plate dilution method. A platinum loop each of test bacteria (10^6 cells/ml), cultured in Mueller Hinton broth, was inoculated on Mueller Hinton agar plates which contained test compounds at various concentrations. After cultivating at 37° C. for 20 hours, the minimum inhibitory concentration (MIC μg/ml) was determined.

In data set [1] the test system is Staphylococcus aureus Smith. The description is as above. Conditions: Mueller Hinton agar, 10^6 cells/ml, 37° C., 20 hours. The class given is cell-based. As for the experimental part: as §1
Data set [2] deals with Pseudomonas aeruginosa IFO3445. The data set is described as above. Conditions: Mueller Hinton agar, 10^6 cells/ml, 37° C., 20 hours. Format: cell-based. As for the experimental part:
as §1

Data set [3] has as its system Serratia marcescens IFO3759. Described as above. The class given is cell-based. As to conditions: Mueller Hinton agar, 10^6 cells/ml, 37° C., 20 hours. As for the experimental part: as §1
Data set [4] deals with Klebsiella pneumoniae IFO3317. The data set is described as above. The class given is cell-based. Conditions: Mueller Hinton agar, 10^6 cells/ml, 37° C., 20 hours. On the procedure:
as §1

A further data set can be described thus: LD50, Probit method. As to conditions: in vivo, iv. As for the experimental part:
Next, LD50 of representative examples of the compounds of the present invention is shown in Table 3 wherein LD50 was determined in accordance with the Probit method.

In a further data set the test system is Serratia marcescens 274. Kind of data set: Protection ability against systemic infection. Format: in vivo, ICR mice. As to conditions: in Mus musculus, iv, 168 h, Table 2-b, i.p. infection, i.v. compound 1 hour later, survival at 1 week, read-out: ED50. As for the experimental part:
Protection ability against systemic infection was determined as follows. An aqueous suspension of test bacteria was intraperitoneally injected into 10 four week old ICR mice. One hour after the infection, test compounds were intravenously administered. The number of surviving mice was counted 1 week after injection to determine the dose at which 50% of the test animals were alive (ED50 :mg/kg).

Values after ≈ are worked out from the molar mass of the structure shown.

Consider `CC(=O)Oc1cc(C(=O)O)c(CO/N=C(\C(=O)N[C@@H]2C(=O)N3C(C(=O)O)=C(CSc4cc(C)nc5nc(C(=O)O)nn45)CS[C@H]23)c2csc(N)n2)cc1O` [Compound 5, (6R,7R)-7-[2-(2-amino-4-thiazolyl)-2-[Z-[(4-acetoxy-2-carboxy-5-hydroxyphenyl)-methyl]oxyimino]acetamido]-3-[(2-carboxy-5-methyl-s-triazolo-[1,5-a]pyrimidin-7-yl)thiomethyl]-8-oxo-5-thia-1-azabicyclo[4.2.0]oct-2-ene-2-carboxylic acid], for which the MIC is below 0.05 µg/mL in the data set on Escherichia coli 67; 1.56 µg/mL (≈ 1.95 µM) in data set [1]; 0.2 µg/mL (≈ 0.25 µM) in data set [2]; below 0.05 µg/mL in data set [3]; below 0.05 µg/mL in data set [4].

In the case of `Cc1cc(SCC2=C(C(=O)O)N3C(=O)[C@@H](NC(=O)/C(=N\OC(C(=O)O)c4cc(O)c(O)c(O)c4)c4csc(N)n4)[C@H]3SC2)n2nc(C(=O)O)nc2n1` (stereo partly drawn) [Compound 12, (6R,7R)-7-[2-(2-amino-4-thiazolyl)-2-[Z-[carboxy(3,4,5-trihydroxyphenyl)-methyl]oxyimino]acetamido]-3-[(2-carboxy-5-methyl-s-triazolo[l,5-a]pyrimidin-7-yl)thiomethyl]-8-oxo-5-thia-l-azabicyclo [4 2.0]oct-2-ene-2-carboxylic acid], the MIC with Escherichia coli 67 was 1.1 µg/mL (≈ 1.42 µM); in data set [1], 0.78 µg/mL (≈ 1.01 µM); in data set [2], 6.25 µg/mL (≈ 8.08 µM); in data set [4] it was below 0.05 µg/mL.

For the molecule `Nc1nc(/C(=N/OC(C(=O)O)c2ccc(O)c(O)c2)C(=O)N[C@@H]2C(=O)N3C(C(=O)[O-])=C(C[n+]4ccccc4)CS[C@H]23)cs1` (stereo partly drawn) [Compound 14, (6R,7R)-7-[2-(2-amino-4-thiazolyl)-2-[Z-[carboxy(3 4-dihydroxyphenyl)methyl]-oxyimino]acetamido]-3-(pyridiniummethyl)-8-oxo-5-thia-l-azabicyclo[4.2.0]oct-2-ene-2-carboxylate], the MIC against Escherichia coli 67 is 0.39 µg/mL (≈ 0.622 µM); in data set [1] it was 0.78 µg/mL (≈ 1.24 µM); in data set [2], 1.56 µg/mL (≈ 2.49 µM); in data set [3], 0.39 µg/mL (≈ 0.622 µM); in data set [4] it was 0.1 µg/mL (≈ 0.16 µM).

On to `Nc1nc(/C(=N/O[C@H](C(=O)O)c2ccc(O)c(O)c2)C(=O)N[C@@H]2C(=O)N3C(C(=O)[O-])=C(C[n+]4ccccc4)CS[C@H]23)cs1` [Compound 15, (6R,7R)-7-[2-(2-amino-4-thiazolyl)-2-[Z-[(S)-carboxy(3,4-dihydroxyphenyl)methyl]oxyimino]acetamido]-3-(pyridiniummethyl)-8-oxo-5-thia-1-azabicyclo[4.2.0]oct-2-ene-2-carboxylate], for which the minimal inhibitory concentration (MIC) in the data set with Escherichia coli 67 is 0.1 µg/mL (≈ 0.16 µM); in data set [1], 0.78 µg/mL (≈ 1.24 µM); in data set [2], 0.39 µg/mL (≈ 0.622 µM); in data set [3], 0.1 µg/mL (≈ 0.16 µM); in data set [4], below 0.05 µg/mL. The LD50 in “LD50, Probit method” was above 1000 mg/kg.

For `Cc1cc(SCC2=C(C(=O)O)N3C(=O)[C@@H](NC(=O)/C(=N\OC(C)(C(=O)O)c4ccc(O)c(O)c4)c4csc(N)n4)[C@H]3SC2)n2nc(C(=O)O)nc2n1` (stereo partly drawn) [Compound 11, (6R,7R)-7-[2-(2-amino-4-thiazolyl)-2-[Z-[1-carboxy-1-(3,4-dihydroxyphenyl)ethyl]oxyimino]acetamido]-3-[(2-carboxy-5-methyl-s-triazolo[1,5-a]pyrimidin-7-yl)thiomethyl]-8-oxo-5-thia-1-azabicyclo[4.2.0]oct-2-ene-2-carboxylic acid], the MIC against Escherichia coli 67 was below 0.05 µg/mL; in data set [1] it was 0.78 µg/mL (≈ 1.01 µM); in data set [2] it was 0.78 µg/mL (≈ 1.01 µM); in data set [3], 0.2 µg/mL (≈ 0.259 µM); in data set [4] it was below 0.05 µg/mL.

As to `Cc1cc(SCC2=C(C(=O)O)N3C(=O)[C@@H](NC(=O)/C(=N\O[C@@H](C(=O)O)c4ccc(O)c(O)c4)c4csc(N)n4)[C@H]3SC2)n2nc(C(=O)O)nc2n1` [Compound 10, (6R,7R)-7-[2-(2-amino-4-thiazolyl)-2-[Z-[(R)-carboxy(3,4-dihydroxyphenyl)-methyl]oxyimino]acetamido]-3-[(2-carboxy-5-methyl-s-triazolo[1,5-a]pyrimidin-7-yl)thiomethyl]-8-oxo-5-thia-1-azabicyclo[4.2.0]oct-2-ene-2-carboxylic acid], the MIC against Escherichia coli 67 is 0.2 µg/mL (≈ 0.264 µM); in data set [1] it was 0.78 µg/mL (≈ 1.03 µM); in data set [2], 6.25 µg/mL (≈ 8.25 µM); in data set [3], 0.1 µg/mL (≈ 0.132 µM); in data set [4], below 0.05 µg/mL. Further, in the data set with Serratia marcescens 274, the ED50 was found to be 28.6 mg/kg.

For `Cc1cc(SCC2=C(C(=O)O)N3C(=O)[C@@H](NC(=O)/C(=N\OC(=O)c4cc(O)c(O)c(O)c4)c4csc(N)n4)[C@H]3SC2)n2nc(C(=O)O)nc2n1` [Compound 1, (6R,7R)-7-[2-(2-amino-4-thiazolyl)-2-[Z-(3,4,5-trihydroxybenzoyl)oxyimino]acetamido]-3-[(2-carboxy-5-methyl-s-triazolo[l,5-a]-pyrimidin-7-yl)thiomethyl]-8-oxo-5-thia-l-azabicyclo [4.2.0]oct-2-ene-2-carboxylic acid], the MIC in the data set on Escherichia coli 67 is below 0.05 µg/mL; in data set [1], 0.78 µg/mL (≈ 1.05 µM); in data set [2], 3.13 µg/mL (≈ 4.21 µM); in data set [3], below 0.05 µg/mL; in data set [4], below 0.05 µg/mL. The LD50 in the data set “LD50, Probit method” is above 1000 mg/kg.

Regarding `Cc1cc(=O)n2nc(SCC3=C(C(=O)O)N4C(=O)[C@@H](NC(=O)/C(=N\OC(=O)c5cc(O)c(O)cc5C)c5csc(N)n5)[C@H]4SC3)sc2n1` [Compound 4], the MIC in the data set on Escherichia coli 67 is 0.78 µg/mL (≈ 1.07 µM); in data set [1] it was 0.39 µg/mL (≈ 0.534 µM); in data set [2], 3.13 µg/mL (≈ 4.28 µM); in data set [3] it was below 0.05 µg/mL; in data set [4], below 0.05 µg/mL. The molecule further showed an LD50 in “LD50, Probit method” above 1000 mg/kg.

Take `CC(=O)Oc1ccc([C@@H](O/N=C(\C(=O)N[C@@H]2C(=O)N3C(C(=O)O)=C(CSc4cc(C)nc5nc(C(=O)O)nn45)CS[C@H]23)c2csc(N)n2)C(=O)O)cc1OC(C)=O` [Compound 8, (6R,7R)-7-[2-(2-amino-4-thiazolyl)-2-[Z-[(R)-carboxy(3,4-diacetoxyphenyl)-methyl]oxyimino]acetamido]-3-[(2-carboxy-5-methyl-s-triazolo[l,5-a]pyrimidin-7-yl)thiomethyl]-8-oxo-5-thia-1-azabicyclo [4.2.0]oct-2-ene-2-carboxyl-acid]: the MIC is 0.2 µg/mL (≈ 0.238 µM) against Escherichia coli 67, 3.13 µg/mL (≈ 3.72 µM) in data set [2], 0.1 µg/mL (≈ 0.119 µM) in data set [3] and below 0.05 µg/mL in data set [4]. Besides, in the data set with Serratia marcescens 274, the ED50 came out at 10.5 mg/kg.

Regarding `CC(=O)Oc1ccc([C@H](O/N=C(\C(=O)N[C@@H]2C(=O)N3C(C(=O)O)=C(CSc4cc(C)nc5nc(C(=O)O)nn45)CS[C@H]23)c2csc(N)n2)C(=O)O)cc1OC(C)=O` [Compound 7, (6R,7R)-7-[2-(2-amino-4-thiazolyl)-2-[Z-[(S)-carboxy(3,4-diacetoxyphenyl)methyl]oxyimino]acetamido]-3-[(2-carboxy-5-methyl-s-triazolo-[1,5-a]pyrimidin-7-yl)thiomethyl]-8-oxo-5-thia-1-azabicyclo[4.2.0]oct-2-ene-2-carboxylic acid], the MIC is 0.2 µg/mL (≈ 0.238 µM) with Escherichia coli 67, 1.56 µg/mL (≈ 1.85 µM) in data set [2], 0.1 µg/mL (≈ 0.119 µM) in data set [3] and below 0.05 µg/mL in data set [4].

Take `Cc1cc(SCC2=C(C(=O)O)N3C(=O)[C@@H](NC(=O)C(NC(=O)c4ccc(O)c(O)c4)c4csc(N)n4)[C@H]3SC2)n2nc(C(=O)O)nc2n1` (stereo partly drawn) [Compound 17, (6R,7R)-7-[2-(2-amino-4-thiazolyl)-2-(3,4-dihydroxybenzoylamino)acetamido]-3-[(2-carboxy-5-methyl-s-triazolo [1,5-a]pyrimidin-7-yl)thiomethyl]-8-oxo-5-thia-1-azabicyclo[4.2.0]oct-2-ene-2-carboxylic acid]: the MIC in the data set on Escherichia coli 67 was below 0.05 µg/mL; in data set [1] it was 3.13 µg/mL (≈ 4.39 µM); in data set [2], 1.56 µg/mL (≈ 2.19 µM); in data set [3], below 0.05 µg/mL; in data set [4] it was below 0.05 µg/mL.

As usually defined, the MIC is the smallest concentration in the dilution series that meets the test's criterion for growth inhibition. What is called LD50 is the dose expected to kill half of the subjects tested. Read a high LD50 as lower toxicity. One may read the ED50 as the dose at which the effect has come halfway, by size or by number of responders.
